# Measurements: ChEMBL document CHEMBL1201862, “PubChem BioAssay data set” (2004)
# Calls of active or inactive are those of the source.
# How the values were obtained:
# [1] = target: Phospholipase A2 (Homo sapiens, UniProt P04054); assay type: functional;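 further: confirmatory dose-response counterscreen on phospholipase A2, testing hits that came from an ultra-high-throughput screen for ATG4B inhibitors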
# [2] = target: Cysteine protease ATG4B (Homo sapiens, UniProt Q9Y4P1); assay type: functional;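 further: Fluorescence-based dose-response confirmation assay measuring inhibition of ATG4B activity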
# [3] = target: T1, Streptokinase A (Streptococcus pyogenes serotype M1, UniProt P10520); experiment: viability-normalized secreted streptokinase activity reduction – plasminogen activation absorbance, OD405, dose response (AID 1914); assay type: functional, Streptococcus pyogenes M1 GAS;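 further: secreted streptokinase activity via plasminogen activation per viability signal from cell pellet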
# T1 sequence (P10520 whole entry): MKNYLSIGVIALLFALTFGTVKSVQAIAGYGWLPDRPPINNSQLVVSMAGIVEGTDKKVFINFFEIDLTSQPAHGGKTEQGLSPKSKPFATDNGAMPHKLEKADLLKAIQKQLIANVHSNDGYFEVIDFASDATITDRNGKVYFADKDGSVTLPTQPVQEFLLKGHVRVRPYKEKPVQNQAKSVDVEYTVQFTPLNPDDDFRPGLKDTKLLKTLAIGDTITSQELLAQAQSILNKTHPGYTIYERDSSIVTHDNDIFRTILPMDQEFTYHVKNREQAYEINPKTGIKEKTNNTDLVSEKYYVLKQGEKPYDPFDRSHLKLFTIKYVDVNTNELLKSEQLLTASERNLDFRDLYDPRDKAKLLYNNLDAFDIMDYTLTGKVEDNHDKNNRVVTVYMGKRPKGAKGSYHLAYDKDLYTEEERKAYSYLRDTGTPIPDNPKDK
# [4] = system: Streptococcus sp. 'group A'; experiment: Streptococcus pyogenes SK(-)GAS viability under kanamycin – luminescence, BacTiterGlo, confirmation, counter-screen for streptokinase expression inhibitor project, dose response (AID 1900); assay type: functional, organism-based
# [5] = system: Streptococcus; experiment: GAS UMAA2166 growth inhibition – luminescence, BacTiterGlo, counter-screen for streptokinase expression inhibitor project, dose response (AID 1915); assay type: functional, organism-based;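 further: potency for reduction of bacterial viability or growth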
# [6] = system: Candida albicans; experiment: antifungal activity against resistant Candida strain – CaCi-8, fluconazole, Alamar Blue, dry powder, dose response (AID 488807); assay type: functional, organism-based
# [7] = system: Candida albicans; experiment: C. albicans growth inhibition with fluconazole – CaCi-2 strain, Alamar Blue, dry powder, set 4, dose response (AID 488943); assay type: functional, organism-based
# [8] = system: Candida albicans; experiment: fluconazole-resistant Candida strain growth inhibitors – CaCi-8 strain, dry powder, set 4, dose response (AID 488950); assay type: functional, organism-based
# [9] = target: Hexokinase HKDC1 (Homo sapiens, UniProt Q2TB90); experiment: SAR analysis of small molecule inhibitors of hexokinase domain containing I (HKDC1). [Related pubchem assays (depositor defined):AID493160, AID493190]; assay type: functional
# [10] = target: Hexokinase-1 (Homo sapiens, UniProt P19367); experiment: SAR analysis of small molecule inhibitors of hexokinase domain containing I (HKDC1) in the hexokinase 1 selectivity assay. [Related pubchem assays (depositor defined):AID493160, AID493190]; assay type: functional
# [11] = RKO cell viability reduction, dose response, CellTiter-Glo luminescence (AID 1117322); assay type: functional
# [12] = target: HSP90 (Plasmodium falciparum 3D7, UniProt Q8IL32); assay type: functional, organism-based
# [13] = rise of 4N DNA cells, HeLa – IC50, dose response (AID 1117351); assay type: functional, cell-based
# [14] = HPDE-C7 pancreatic duct cell viability loss – fluorescence, HTS (AID 430); assay type: functional, cell-based; conditions: Homo sapiens
# [15] = Reduced DLD-1 viability, concentration-response, CellTiter-Glo luminescence (AID 1117352); assay type: functional
# [16] = SNU-C1 cell viability reduction, dose response, CellTiter-Glo luminescence (AID 1117323); assay type: functional, cell-based
# [17] = rise of 2N DNA cells, HeLa – IC50, dose response (AID 1117349); assay type: functional, cell-based
# [18] = target: Heat shock protein HSP 90-alpha (Homo sapiens, UniProt P07900); assay type: functional, organism-based
# [19] = cytotoxicity toward Colo320 cells – cell-based, CellTiter-Glo luminescence, IC50, dose response (AID 1117334); assay type: functional; conditions: COLO 320
# [20] = viability loss of HPDE-C7K cells – cell-based, fluorescence, HTS, primary screen (AID 431); assay type: functional; conditions: Homo sapiens
# [21] = cytotoxicity toward HCT116 cells – cell-based, CellTiter-Glo luminescence, IC50, dose response (AID 1117332); assay type: functional; conditions: HCT-116
# [22] = cytotoxicity toward HT-29 cells – cell-based, CellTiter-Glo luminescence, IC50, dose response (AID 1117330); assay type: functional
# [23] = CellTiter-Glo luminescence survival assay, SW480 colon tumor line, concentration-response curve, half-maximal inhibitory concentration (AID 1117338); assay type: functional
# [24] = target: Paired box protein Pax-8 (Homo sapiens, UniProt Q06710); experiment: PAX8 transcriptional activity inhibition in RMG-I – RMG-I cells, luciferase, cherry-pick, dose response (AID 687027); assay type: functional, cell-based;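 further: luciferase reporter driven by Pax8 target thyroperoxidase promoter measured by SteadyGlo luminescence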
# Sequence of Paired box protein Pax-8 (Q06710 whole entry): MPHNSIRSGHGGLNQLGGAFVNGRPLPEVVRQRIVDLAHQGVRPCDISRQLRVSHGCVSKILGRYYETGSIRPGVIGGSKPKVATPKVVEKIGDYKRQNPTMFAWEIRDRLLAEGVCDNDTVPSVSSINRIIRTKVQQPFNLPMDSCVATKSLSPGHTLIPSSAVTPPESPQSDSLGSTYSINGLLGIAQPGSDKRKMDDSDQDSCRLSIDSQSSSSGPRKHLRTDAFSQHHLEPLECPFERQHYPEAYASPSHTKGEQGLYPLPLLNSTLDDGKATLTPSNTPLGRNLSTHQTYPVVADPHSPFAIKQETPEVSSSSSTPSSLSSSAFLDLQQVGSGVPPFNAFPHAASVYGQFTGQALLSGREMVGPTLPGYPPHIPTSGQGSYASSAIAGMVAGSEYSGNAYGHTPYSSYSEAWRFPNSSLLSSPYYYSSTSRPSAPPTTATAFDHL
# Sequence of Hexokinase-1 (P19367 whole entry, the tested form may be a part): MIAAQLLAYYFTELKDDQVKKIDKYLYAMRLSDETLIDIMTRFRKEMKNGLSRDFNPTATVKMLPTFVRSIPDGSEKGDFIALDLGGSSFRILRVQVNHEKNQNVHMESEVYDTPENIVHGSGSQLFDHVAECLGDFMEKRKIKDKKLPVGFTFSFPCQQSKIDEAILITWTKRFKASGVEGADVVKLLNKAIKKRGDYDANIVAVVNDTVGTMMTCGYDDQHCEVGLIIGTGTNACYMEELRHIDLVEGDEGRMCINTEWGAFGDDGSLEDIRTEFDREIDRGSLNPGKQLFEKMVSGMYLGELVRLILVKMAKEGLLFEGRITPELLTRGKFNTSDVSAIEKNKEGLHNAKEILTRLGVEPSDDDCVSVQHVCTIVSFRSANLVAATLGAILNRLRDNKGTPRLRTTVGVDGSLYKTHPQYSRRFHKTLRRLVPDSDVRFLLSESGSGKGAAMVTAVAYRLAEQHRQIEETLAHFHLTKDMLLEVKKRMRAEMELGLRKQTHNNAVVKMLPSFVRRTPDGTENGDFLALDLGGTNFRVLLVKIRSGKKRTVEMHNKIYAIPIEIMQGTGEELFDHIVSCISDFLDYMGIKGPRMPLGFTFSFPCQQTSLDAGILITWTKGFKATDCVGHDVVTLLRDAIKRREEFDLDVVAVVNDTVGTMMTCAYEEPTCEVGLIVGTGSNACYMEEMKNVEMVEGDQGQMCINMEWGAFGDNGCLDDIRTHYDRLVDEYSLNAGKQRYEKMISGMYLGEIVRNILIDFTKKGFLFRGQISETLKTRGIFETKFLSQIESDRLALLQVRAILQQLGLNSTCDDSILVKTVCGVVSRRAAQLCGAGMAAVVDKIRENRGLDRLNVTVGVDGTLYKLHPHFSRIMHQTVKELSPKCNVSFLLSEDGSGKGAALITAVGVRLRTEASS
# Sequence of Hexokinase HKDC1 (Q2TB90 whole entry, the tested form may be a part): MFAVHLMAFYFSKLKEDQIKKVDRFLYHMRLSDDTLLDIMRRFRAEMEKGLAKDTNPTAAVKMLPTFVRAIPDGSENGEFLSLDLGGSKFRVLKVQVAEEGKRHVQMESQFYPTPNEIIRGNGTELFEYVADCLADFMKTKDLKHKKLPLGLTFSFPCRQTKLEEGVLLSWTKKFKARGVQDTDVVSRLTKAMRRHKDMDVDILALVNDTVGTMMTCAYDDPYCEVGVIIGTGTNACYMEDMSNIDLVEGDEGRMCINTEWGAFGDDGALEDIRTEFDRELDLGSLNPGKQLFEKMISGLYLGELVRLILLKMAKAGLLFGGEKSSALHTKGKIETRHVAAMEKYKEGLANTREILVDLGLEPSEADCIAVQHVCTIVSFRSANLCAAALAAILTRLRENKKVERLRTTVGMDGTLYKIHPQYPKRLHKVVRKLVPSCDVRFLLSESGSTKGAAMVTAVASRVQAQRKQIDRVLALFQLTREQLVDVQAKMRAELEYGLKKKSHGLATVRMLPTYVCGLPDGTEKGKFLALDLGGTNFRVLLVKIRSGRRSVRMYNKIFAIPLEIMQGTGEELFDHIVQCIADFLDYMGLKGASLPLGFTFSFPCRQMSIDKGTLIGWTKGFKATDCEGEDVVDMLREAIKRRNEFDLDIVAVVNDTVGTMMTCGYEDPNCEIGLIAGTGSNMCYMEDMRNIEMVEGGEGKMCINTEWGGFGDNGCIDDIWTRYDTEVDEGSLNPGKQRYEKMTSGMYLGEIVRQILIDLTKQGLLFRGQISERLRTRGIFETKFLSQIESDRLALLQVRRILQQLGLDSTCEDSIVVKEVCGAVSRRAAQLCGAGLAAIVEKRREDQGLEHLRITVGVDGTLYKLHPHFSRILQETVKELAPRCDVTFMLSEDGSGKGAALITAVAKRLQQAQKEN
# Sequence of HSP90 (Q8IL32 whole entry): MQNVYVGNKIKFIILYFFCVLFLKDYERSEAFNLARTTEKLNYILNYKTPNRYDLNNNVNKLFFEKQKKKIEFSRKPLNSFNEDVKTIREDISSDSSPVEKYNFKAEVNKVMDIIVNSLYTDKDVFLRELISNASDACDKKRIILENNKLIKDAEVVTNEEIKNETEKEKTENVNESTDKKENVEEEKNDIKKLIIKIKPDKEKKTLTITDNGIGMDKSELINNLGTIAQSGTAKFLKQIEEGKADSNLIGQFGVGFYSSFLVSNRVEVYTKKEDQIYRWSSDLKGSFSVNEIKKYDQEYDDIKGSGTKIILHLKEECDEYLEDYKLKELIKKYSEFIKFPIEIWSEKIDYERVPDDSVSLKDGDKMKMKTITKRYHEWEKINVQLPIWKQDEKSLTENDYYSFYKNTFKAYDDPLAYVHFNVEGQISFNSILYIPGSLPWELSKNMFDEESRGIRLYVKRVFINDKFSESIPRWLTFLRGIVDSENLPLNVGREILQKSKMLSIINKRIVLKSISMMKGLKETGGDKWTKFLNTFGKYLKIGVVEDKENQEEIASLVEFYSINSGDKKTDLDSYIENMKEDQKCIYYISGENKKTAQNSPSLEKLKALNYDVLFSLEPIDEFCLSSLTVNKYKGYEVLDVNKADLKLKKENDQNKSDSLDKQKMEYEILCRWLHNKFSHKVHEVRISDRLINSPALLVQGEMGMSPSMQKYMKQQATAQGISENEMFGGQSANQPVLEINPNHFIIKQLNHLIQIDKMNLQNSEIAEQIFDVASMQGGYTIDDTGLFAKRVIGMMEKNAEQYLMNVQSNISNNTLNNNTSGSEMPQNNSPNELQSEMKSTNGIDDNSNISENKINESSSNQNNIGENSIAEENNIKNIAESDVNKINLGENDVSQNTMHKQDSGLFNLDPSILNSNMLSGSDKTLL
# Sequence of Cysteine protease ATG4B (Q9Y4P1 whole entry): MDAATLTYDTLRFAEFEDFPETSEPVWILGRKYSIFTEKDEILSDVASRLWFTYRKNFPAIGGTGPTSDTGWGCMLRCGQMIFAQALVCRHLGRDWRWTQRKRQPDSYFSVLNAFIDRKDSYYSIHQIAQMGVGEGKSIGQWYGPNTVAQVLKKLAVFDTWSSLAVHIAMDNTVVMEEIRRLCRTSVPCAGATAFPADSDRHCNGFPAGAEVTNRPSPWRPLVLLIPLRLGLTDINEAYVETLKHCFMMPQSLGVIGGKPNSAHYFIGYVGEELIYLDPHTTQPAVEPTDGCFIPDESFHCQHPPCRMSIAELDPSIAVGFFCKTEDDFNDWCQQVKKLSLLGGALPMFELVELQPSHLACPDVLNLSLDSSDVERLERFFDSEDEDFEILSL
# Sequence of Phospholipase A2 (P04054 whole entry): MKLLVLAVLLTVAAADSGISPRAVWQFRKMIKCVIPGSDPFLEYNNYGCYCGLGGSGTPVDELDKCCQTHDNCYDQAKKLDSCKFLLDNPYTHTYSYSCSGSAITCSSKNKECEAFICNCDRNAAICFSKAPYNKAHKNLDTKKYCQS
smiles,measurement,setting,value
CSc1nnc2nc3c(c(O)n12)C1(CCCCC1)Cc1ccccc1-3,IC50,[1],5.6 µM (active)
same,IC50,[2],7.09 µM (active)
same,EC50,[3],> 150 µM (not active)
same,EC50,[4],7.86 µM (active)
same,EC50,[5],123 µM (active)
O=C(c1ccc(Cl)cc1)N1CCN(c2ccc(Cl)cc2)CC1,AC50,[6],0.375 µM (active)
same,AC50,[7],4.76 µM (active)
same,AC50,[8],5.25 µM (active)
N#Cc1ccc(CSc2nnc(NC(=O)c3ccncc3)s2)cc1,IC50,[9],> 80 µM (inactive)
same,IC50,[10],> 80 µM (inactive)
Oc1c(I)cc(I)c2cccnc12 [IODOQUINOL],IC50,[11],0.0227 µM (active)
same,AC50,[12],0.314 µM (active)
same,IC50,[13],> 10 µM (inactive)
same,EC50,[14],17.1 µM (active)
same,IC50,[15],0.0178 µM (active)
same,IC50,[16],0.0387 µM (active)
same,IC50,[17],> 10 µM (inactive)
same,AC50,[18],0.391 µM (active)
same,IC50,[19],0.0213 µM (active)
same,EC50,[20],7.36 µM (active)
same,IC50,[21],0.041 µM (active)
same,IC50,[22],0.705 µM (active)
same,IC50,[23],0.0036 µM (active)
same,AC50,[24],4.87 µM (active)
